From patent publication US20220162257A1, “3ALPHA, 5BETA-NEUROACTIVE STEROIDS FOR THE TREATMENT OF EPILEPSY AND SEIZURE DISEASES” (USTAV ORGANICKE CHEMIE A BIOCHEMIE AV CR, V. V. I., priority 2019, published 2022)

What was measured:
[1] = system: PTZ-induced seizures in zebrafish (Danio rerio); assay: pentetrazol (PTZ)-induced seizures in zebrafish larvae; assay type: in vivo; conditions: 7 dpf larvae, PTZ 5 mmol/L
Description: Adults wild-type (strain AB) zebrafish (Danio rerio) were maintained at 28-29° C. on a light cycle of 14 h light:10h dark (lights on at 7 am; lights off at 9 pm) at ZeClinics animal facility (Barcelona). All procedures involving animals and their care were conducted accordingly to CEA-OH/9421/2 authorization from Government of Catalonia. Embryos obtained by pairwise mating were raised in E3 media at the controlled temperature of 28.5° C. until 7 days post-fertilization (dpf) when the experiments were performed.
The anticonvulsant activity of the claimed compounds on the nervous system of zebrafish (Danio rerio). This test is the modern alternative to tests in adult animals as Danio rerio is very versatile organism that has a number of physiological similarities to mammals, including humans (Expert Opin. Drug Metab. Toxicol. 2009, 5, 393). Steroidal compounds were tested in three concentrations (1, 3 and 5 μmol.L^−1) on 7 days post-fertilization (dpf) wild-type larvae. As a negative control, sibling larvae were incubated with DMSO 1%, which allows us to detect behavioral alterations of PTZ treated larvae. Seizures were induced by treatment of pentetrazol (PTZ) at the dose 5 mmol.L^−1. Commercially available anti-convulsant drug Topiramate was used as comparator. Results were analyzed with GraphPad Prism software and statistical significance is assessed by the One-way ANOVA statistical analysis followed by Tukey's multiple comparisons test. The zebrafish larvae locomotion and response to visual stimuli are traced and analyzed by the EthoVision XT 12 software and the DanioVision device from Noldus Information Technologies, Wageningen, The Netherlands.
This closed system consists of a camera placed above a chamber with circulating water and a temperature sensor that is set at 28° C. Individualized larvae in a 48-wells plate are placed in the chamber, which can provide different stimuli (light/dark environment, tapping, sound) controlled by the software. Prior to each experiment, larvae were left for 10 minutes in dark for acclimation, then predetermined series of alternating dark and light environment are presented to the larvae. The final experimental protocol is divided in three main part: first a 15 minutes step with light on, then a series of 5 short flashes of light to induce epileptic seizures and finally a 25 minutes dark/light alternating environments phase. Different sets of information can be extrapolated from the different phases: while the first step is useful to detect changes in the total larvae locomotion, the second part allows us to analyze the larval response to a seizure-inducing visual stimulus and measure the seizure characteristics: the maximum velocity and the number of angles turns (specific of seizure erratic movement). The final phase is useful to detect anomalies in larval movement and deviations from the stereotyped behavior (natural locomotor behavior of zebrafish is active in dark and immobile in light). The anticonvulsant effect of compounds was studied at doses of […] for the compound shown in Example 1, Example 2 and Example 3.

[2] = system: generalized tonic-clonic seizures in adult rats; assay: seizures in young adult (P60) rats, FIGS. 6A-6C; assay type: in vivo, rat
Description: FIGS. 6A-6C show anticonvulsant effect of a substance from Example 1 in a model of seizures elicited by 6 Hz transcorneal electrical stimulation in young adult (P60) male rats. Steroid substance in dose 1, 5, or 10 mg/kg i.p. (x-axis) was administered 20 min before the first stimulation. Graph 6A (y-axis in %)—incidence of complete (GTCS) and incomplete, i.e. without the tonic phase (GCS) generalized seizures; graph 6B (y-axis in %)—incidence of minimal clonic seizures; graph 6C (y-axis in s)—latencies of generalized seizures.
Anticonvulsant effect of compounds was evaluated in two models of epileptic seizures in immature rats (PTZ model and 6 Hz model). PTZ convulsions were tested in 12- and 25-day-old rats, 6 Hz-induced seizures in 15- and 25-day-old rats. Young adult rats (P60) were also used in either test. Day of birth was taken as P0. Experiments evaluating precognitive effect were performed in adult male rats of the Wistar and Long Evans strain (3 months old, b.w. 300-400 g). All animals were obtained from a breeding facility of Institute of Physiology CAS (certificate No. 1396/2014-MZE-17214) Animals were held in standard conditions (21±1° C., humidity 50-60%, light regime 12/12) with unrestricted access to food and water. All manipulations with animals were performed according to the https://nc3rs.org.uk/arrive-guidelines and to Czech Animal Protection Law 246/1992 Sb. And international directives (EU Directive 2010/63/EU for animals' experiments).
GTCS were present in only one rat after the 10-mg/kg dose.

[3] = system: NMDA lesion of the dorsal hippocampus in male rats; assay: bilateral excitotoxic NMDA lesion of the dorsal hippocampus; assay type: in vivo, rat; conditions: 1 mg/kg i.p. 5 minutes after NMDA lesion, evaluated 24 h
Description: The tissue damage is induced by infusing NMDA (25 mmol.L^−1) into the dorsal hippocampus in the male rats. The figures in panel (FIG. 9A) show representative images of brain slices of control animals, in panel (FIG. 9B) the group of animals which were administered the solutions containing NMDA into dorsal hippocampus (NMDA lesion) and i.p. treated by (2-hydroxypropyl)-β-cyclodextrin (CDX) and in panel (FIG. 9C) brain slices of the animals, with NMDA lesions of the dorsal hippocampus and i.p. treated by the Compound of Example 1 at a dose of 1 mg/kg dissolved in CDX.
The neuroprotective effect of the Compound from Example 1 was tested in the model of bilateral excitotoxic lesion of the dorsal hippocampus. The procedure was performed according to literature (Neuropharmacology 2011, 61, 61). This model simulates the overstimulation of NMDA receptors that occurs in the number of pathophysiological states, leading to calcium flow into the neuron's and, consequently, to apoptosis […] necrosis. Clinically, this phenomenon is manifested by neurodegeneration and CNS damage. Rats were randomly divided into three groups. […] Histological damage, e.g. the neuroprotective effect of Compound from Example 1 was evaluated by staining damaged neurons with Fluoro Jade B (Merck Millipore, Catalog Number AG310-30MG), and evaluated areas included: hippocampus-DG, hilus, CA3, CA1.

CC(=O)[C@H]1CC[C@H]2[C@@H]3CC[C@@H]4C[C@H](OC(=O)C5CCC(=O)N5)CC[C@]4(C)[C@H]3CC[C@]12C (stereo partly drawn) [Example 1, (3R,5R,8R,9S,10S,13S,14S,17S)-17-Acetyl-10,13-dimethylhexadecahydro-1H-cyclopenta[a]fenantren-3-yl 5-oxopyrrolidine-2-carboxylate]
epileptiform locomotor activity in the dark phase/light test, sedation ([1]; doses of 1, 3 and 5 mg/kg): decreased epileptiform locomotor activity in the dark phase/light test without causing sedation
locomotor activity epileptiform induced by PTZ (spontaneous locomotor activity, maximum velocity, angle turns) ([1]; doses of 1, 3 and 5 mg/kg (1, 3 and 5 μmol/L in the source)): significantly reduced the locomotor activity epileptiform induced by PTZ
latency to GTCS ([2]; 5 mg/kg i.p.): significantly decreased
animals with GTCS ([2]; 10 mg/kg i.p.): only one rat
incidence of generalized tonic-clonic seizures (GTCS) ([2]; 10 mg/kg i.p.): significantly decreased the incidence
minimal clonic seizures ([2]; 10 mg/kg i.p.): remained unaffected
seizure severity ([2]; 5 and 10 mg/kg i.p.): significantly decreased
dorsal hippocampus damage (Fluoro Jade B staining) [3]: significant reduction in the dorsal hippocampus damage
